# According to patent US12053507B2, “Combination therapies for inhibiting sprout angiogenesis in the treatment of cancers” ([…] OF PHARMACY, LLC, priority 2010, dated 2024):
# “Also recorded” adds a separate entry of the source.
# Columns and labels:
# VEGF = details: colorectal cancer; in combination with standard Saltz regime of irinotecan, 5-fluorouracil, and leucovorin; cited from earlier work
# [1] = tested on: human dermal microvascular endothelial cells (HDMEC); assay: microcarrier in vitro 3D sprout angiogenesis assay of HDMEC in fibrin gel; type: cell-based
# Description: Human dermal microvascular endothelial cells (HDMEC) were isolated from human neonatal foreskins. Briefly, after initial harvest from minced trypsinized human foreskins, microvascular endothelial cells were further purified on a PERCOLL® density gradient. […] HDMEC were cultured on collagen type 1 coated tissue culture flasks in EGM (endothelial cell growth medium) consisting of EBM supplemented with 10 ng/ml epidermal growth factor, 0.4% bovine brain extract, 17.5 microg/ml dibutyryl cyclic AMP, and 1 microg/ml hydrocortisone in the presence of 30% normal human serum. […] All experiments were done with HDMEC below passage 10. Bovine aortic endothelial cells (BAEC) were obtained from BioWhittaker, Inc. (Walkersville, MD) and cultured according to manufacturer's instruction. BAEC between passage 4 and 8 were used for experiments.
# Gelatin-coated CYTODEX®-3 microcarrier beads were prepared as described by the manufacturer. Approximately 80,000 sterile microcarrier beads were washed, resuspended in EGM, and added to approximately 4.5 million endothelial cells (HDMEC or BAEC). The beads and cells were mixed by gentle swirling, incubated at 37° C. for 6 hr, and then rotated for 24-36 hr on an orbital mixer in a 37° C. oven to generate endothelial cell-loaded microcarrier beads (EC-beads).
# FIGS. 1A-1C illustrate a study of human microvascular endothelial cell angiogenesis, according to some embodiments. A microcarrier, in vitro angiogenesis assay, previously designed to investigate bovine pulmonary artery endothelial cell angiogenic behavior in bovine fibrin gels, was modified for the study of human microvascular endothelial cell angiogenesis. The HDMEC were isolated from human neonatal foreskins and used, as described above, and images were captured at various magnifications, where the effect of angiogenic factors on sprout angiogenesis was quantified visually by counting the number and percent of EC-beads with capillary sprouts.
# An isotonic 1.5 mg/ml collagen solution was prepared by mixing sterile native bovine type I &III collagen (VITROGEN®, Collagen Biomaterials, Palo Alto, CA) in 5XM199 medium and distilled water. The pH was adjusted to 7.4 using 1N NaOH.
# For experiments using RGD peptides, EC-beads were firstly incubated with vary concentrations of peptides for one hour and then were added to the ECM solutions. About 500 EC-beads were then added to the ECM protein solutions, followed by the addition of 0.5 U/ml human thrombin. A 0.3 ml aliquot of each suspension was immediately added to appropriate wells of a 24-well tissue culture plate. After gelation, 1 ml of fresh assay medium (EBM supplemented with 20% normal human serum for HDMEC or EBM supplemented with 10% fetal bovine serum for BAEC) was added to each well.
# FIGS. 1B and 1C show how the angiogenic response was monitored visually and recorded by video image capture. Specifically, capillary sprout formation was observed and recorded with a NIKON® Diaphot-TMD inverted microscope (Nikon Inc., Melville, NY), equipped with an incubator housing with a NIKON® NP-2 thermostat and Sheldon #2004 carbon dioxide flow mixer. […] The effect of angiogenic factors on sprout angiogenesis was quantified visually by determining the number and percent of EC-beads with capillary sprouts. 100-200 beads (five random low power fields) in each of triplicate wells were counted for each experimental condition. […]
# αvβ3 integrin = αvβ3 integrin (Homo sapiens, UniProt P05106+P06756); details: cited from earlier work
# Sequence of αvβ3 integrin (P06756 31-889 limits assumed): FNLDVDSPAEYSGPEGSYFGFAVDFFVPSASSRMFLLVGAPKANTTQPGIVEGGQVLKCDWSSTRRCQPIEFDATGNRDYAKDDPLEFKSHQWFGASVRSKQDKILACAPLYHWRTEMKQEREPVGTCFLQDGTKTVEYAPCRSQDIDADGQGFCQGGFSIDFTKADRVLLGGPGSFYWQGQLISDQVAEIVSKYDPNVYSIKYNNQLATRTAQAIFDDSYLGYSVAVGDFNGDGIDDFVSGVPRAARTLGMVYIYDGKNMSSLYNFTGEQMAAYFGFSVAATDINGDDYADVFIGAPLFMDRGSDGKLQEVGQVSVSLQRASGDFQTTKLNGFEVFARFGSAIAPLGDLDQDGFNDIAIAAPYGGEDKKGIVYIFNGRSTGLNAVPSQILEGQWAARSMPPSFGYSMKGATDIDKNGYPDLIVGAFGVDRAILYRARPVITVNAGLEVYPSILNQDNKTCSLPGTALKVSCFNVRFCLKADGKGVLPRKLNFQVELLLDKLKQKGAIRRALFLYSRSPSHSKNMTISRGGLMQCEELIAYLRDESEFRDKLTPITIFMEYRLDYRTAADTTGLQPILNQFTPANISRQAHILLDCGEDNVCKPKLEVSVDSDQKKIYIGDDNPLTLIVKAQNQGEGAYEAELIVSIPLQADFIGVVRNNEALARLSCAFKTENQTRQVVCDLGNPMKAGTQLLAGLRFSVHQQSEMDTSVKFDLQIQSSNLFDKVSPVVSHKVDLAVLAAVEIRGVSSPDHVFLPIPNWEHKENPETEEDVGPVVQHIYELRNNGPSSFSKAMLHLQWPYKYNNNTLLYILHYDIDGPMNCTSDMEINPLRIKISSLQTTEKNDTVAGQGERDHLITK
# Sequence of αvβ3 integrin (P06756 891-1048 partner limits assumed): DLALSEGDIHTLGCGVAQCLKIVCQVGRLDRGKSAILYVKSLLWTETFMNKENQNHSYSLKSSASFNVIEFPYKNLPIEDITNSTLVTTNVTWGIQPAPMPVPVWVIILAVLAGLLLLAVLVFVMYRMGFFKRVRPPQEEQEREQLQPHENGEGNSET
# Sequence of αvβ3 integrin (P05106 27-788): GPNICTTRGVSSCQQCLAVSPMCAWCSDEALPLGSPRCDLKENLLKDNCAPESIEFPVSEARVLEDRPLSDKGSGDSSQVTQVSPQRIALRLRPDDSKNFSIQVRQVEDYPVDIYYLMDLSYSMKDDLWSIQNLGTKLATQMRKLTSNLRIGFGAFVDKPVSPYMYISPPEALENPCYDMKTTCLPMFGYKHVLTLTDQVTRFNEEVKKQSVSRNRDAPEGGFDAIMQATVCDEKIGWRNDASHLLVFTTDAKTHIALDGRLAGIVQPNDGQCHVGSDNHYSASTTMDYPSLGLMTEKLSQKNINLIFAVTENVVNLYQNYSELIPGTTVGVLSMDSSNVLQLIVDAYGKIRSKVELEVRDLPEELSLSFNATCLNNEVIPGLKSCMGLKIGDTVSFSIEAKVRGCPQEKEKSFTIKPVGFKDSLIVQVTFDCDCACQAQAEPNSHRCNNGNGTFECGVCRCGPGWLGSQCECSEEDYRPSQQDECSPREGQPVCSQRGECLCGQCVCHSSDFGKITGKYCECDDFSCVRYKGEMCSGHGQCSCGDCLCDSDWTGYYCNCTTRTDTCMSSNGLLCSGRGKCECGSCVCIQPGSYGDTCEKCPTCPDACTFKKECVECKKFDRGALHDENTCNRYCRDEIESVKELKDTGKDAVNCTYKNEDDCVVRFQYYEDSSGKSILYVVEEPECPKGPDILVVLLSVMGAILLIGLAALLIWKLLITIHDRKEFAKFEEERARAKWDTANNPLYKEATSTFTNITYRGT
# [2] = single agent, HDMEC in 3D fibrin matrix, stimulated with VEGF and bFGF
# Sequence of VEGF (P15692 207-311 limits assumed): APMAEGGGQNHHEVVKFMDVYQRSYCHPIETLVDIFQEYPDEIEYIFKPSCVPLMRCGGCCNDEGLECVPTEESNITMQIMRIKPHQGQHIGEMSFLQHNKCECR
Substance,increase of survival time (VEGF),"inhibition of sprout angiogenesis [1, 2]",αvβ3 integrin antagonism (αvβ3 integrin),"inhibition of sprout angiogenesis ([1]; echistatin alone at 0.1 μg/ml, HDMEC in fibrin)","inhibition of sprout angiogenesis ([1]; echistatin alone, 1 μg/ml to 10 μg/ml, HDMEC in fibrin)","inhibition of sprout angiogenesis ([1]; single agent, HDMEC in 3D fibrin matrix, stimulated with VEGF and bFGF, listed as Echistatin)"
AVASTATIN® (bevacizumab): human monoclonal antibody to VEGF,more than 30%,–,–,–,–,–
"cyclo (Arg-Gly-Asp-d-Phe-Cys) [cRGDfC, reference compound]",–,dose dependently inhibited sprout angiogenesis,–,–,–,–
echistatin (QCESGPCCRNCKFLKEGTICKRARGDDMDDYCNGKTCDCPRNPHKGPAT; listed as Echis carinatus),–,inhibition of sprout angiogenesis; also recorded: dose dependently inhibited sprout angiogenesis,potent irreversible αvβ3 integrin antagonist,little inhibitory effect,dose dependently,dose dependently inhibits sprout angiogenesis
